Laboratory results reported in paper PMC11483378, “Triazole-Based Thiamine Analogues as Inhibitors of Thiamine Pyrophosphate-Dependent Enzymes: 1,3-Dicarboxylate for Metal Binding” (ACS Omega, 2024).
“And” between values parts separate entries of the source, which are not always exact repeats. Identical values can stand only once. Like-named read-outs stand apart in the source and are kept apart here.

Key:
Assay type in all cases: biochemical
Porcine PDH E1 = target: T1, Porcine PDH E1 (Sus scrofa, UniProt P29804); assay: Porcine PDH E1 inhibitory activity assay (DCPIP reduction); settings: for % Inhibition (5:1): [Compound] = 250 μM, [TPP] = 50 μM; for inhibition at 250 µM: [Compound] = [TPP] = 250 μM, read-out: % Inhibition (1:1); for vs TPP: affinity of the compound relative to that of TPP (= [TPP]/IC50) / IC50: [TPP] = 60 µM; for IC50: read-out: IC50 (μM ± SEM); for Ki: calculated from KM(TPP) 0.05 µM using [TPP]/IC50 = KM(TPP)/KI
T1 sequence (P29804 31-390): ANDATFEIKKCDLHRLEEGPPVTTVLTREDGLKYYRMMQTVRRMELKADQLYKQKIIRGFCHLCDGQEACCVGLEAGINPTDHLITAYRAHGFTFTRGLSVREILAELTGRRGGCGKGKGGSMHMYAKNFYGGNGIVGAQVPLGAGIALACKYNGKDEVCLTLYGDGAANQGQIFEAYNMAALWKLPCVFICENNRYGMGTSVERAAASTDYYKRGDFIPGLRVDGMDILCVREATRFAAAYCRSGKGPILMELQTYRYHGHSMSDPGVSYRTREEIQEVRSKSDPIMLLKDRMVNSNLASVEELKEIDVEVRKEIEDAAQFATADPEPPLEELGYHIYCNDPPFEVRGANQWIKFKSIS
Protocol: Porcine PDH E1 was purchased from Sigma. Porcine PDH E1 activity was determined by monitoring 2,6-dichlorophenolindophenol (DCPIP) reduction at 600 nm using a microplate reader (CLARIOstar) and conducted as described[5] with some modifications. […] The reaction buffer (50 mM KH2PO4 and 1 mM MgCl2, pH 7) contained thiamine pyrophosphate (TPP) at specified concentrations, 0.25 mM DCPIP, and 2 mg/mL porcine PDH E1. The reaction mixture was preincubated at 37 °C with the inhibitor for 30 min, and then the reaction was initiated by adding pyruvate to a final concentration of 50 mM. To determine the half-maximal inhibitory concentration (IC50), the TPP concentration was set at 60 μM with varying inhibitor concentrations. Specific activity was calculated using the molar extinction coefficient of DCPIP, 21 mM^–1 cm^–1.[28] The IC50 values were calculated from nonlinear regression curve fitting using GraphPad Prism.
Porcine PDH E1 inhibitory activity assay. Porcine PDH E1 was purchased from Sigma. Porcine PDH E1 activity was determined by monitoring 2,6-dichlorophenolindophenol (DCPIP) reduction at 600 nm using a microplate reader (CLARIOstar) and conducted as described3 with some modifications. The […]
buffer (50 mM KH2PO4 and 1 mM MgCl2, pH 7) contained thiamine pyrophosphate (TPP) at specified concentrations, 0.25 mM 2,6-dichlorophenolindophenol (DCPIP), and 2 mg/mL porcine PDH E1. The reaction mixture was preincubated at 37 °C with the inhibitor for 30 min, then reaction was initiated by adding pyruvate to a final concentration of 50 mM. To determine the half-maximal inhibitory concentration (IC50), TPP concentration was set at 60 µM with varying inhibitor concentrations. […]
values were calculated from non-linear regression curve fitting using GraphPad Prism. […]

S. cerevisiae PDC = target: T2, S. cerevisiae PDC (Saccharomyces cerevisiae, UniProt P06169); assay: S. cerevisiae PDC inhibitory activity assay (DCPIP reduction); settings: for % Inhibition (5:1): [Compound] = 750 μM, [TPP] = 150 μM; for inhibition at 750 µM: [Compound] = [TPP] = 750 μM, read-out: % Inhibition (1:1)
T2 construct: purchased Sigma
T2 sequence (P06169 2-563 limits assumed): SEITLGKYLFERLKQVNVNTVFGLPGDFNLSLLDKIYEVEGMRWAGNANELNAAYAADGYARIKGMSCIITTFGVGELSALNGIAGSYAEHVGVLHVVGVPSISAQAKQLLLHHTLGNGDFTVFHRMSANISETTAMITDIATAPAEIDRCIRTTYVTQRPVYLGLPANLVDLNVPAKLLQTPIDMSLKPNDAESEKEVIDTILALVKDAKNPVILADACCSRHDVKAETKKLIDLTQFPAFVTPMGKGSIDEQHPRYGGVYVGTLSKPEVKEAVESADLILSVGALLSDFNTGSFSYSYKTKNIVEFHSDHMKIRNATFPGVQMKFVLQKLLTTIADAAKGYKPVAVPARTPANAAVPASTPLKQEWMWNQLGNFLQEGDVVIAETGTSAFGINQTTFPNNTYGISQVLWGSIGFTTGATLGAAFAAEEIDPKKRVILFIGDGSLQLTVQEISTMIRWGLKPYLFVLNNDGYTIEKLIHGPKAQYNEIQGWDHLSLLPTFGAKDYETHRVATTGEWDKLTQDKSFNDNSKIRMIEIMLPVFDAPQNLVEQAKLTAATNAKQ
Protocol: S. cerevisiae PDC was purchased from Sigma. S. cerevisiae PDC activity was determined by monitoring DCPIP reduction at 600 nm using a microplate reader (CLARIOstar) and conducted as described[5] with some modifications. […] The reaction buffer (50 mM KH2PO4 and 1 mM MgCl2, pH 7) contained TPP at specified concentrations, 0.27 mM DCPIP, and 0.15 mg/mL S. cerevisiae PDC. The reaction mixture was preincubated at 37 °C with the inhibitor for 60 min, and then the reaction was initiated by adding pyruvate to a final concentration of 70 mM. […] Specific activity was calculated using the molar extinction coefficient of DCPIP, 21 mM^–1 cm^–1.[28] The IC50 values were calculated from nonlinear regression curve fitting using GraphPad Prism.
Enzyme inhibitory activity assays – methods and results (Figures S1-4) […]
The compound […]
S. cerevisiae PDC inhibitory activity assay. S. cerevisiae PDC was purchased from Sigma. S. cerevisiae PDC activity was determined by monitoring DCPIP reduction at 600 nm using a microplate reader (CLARIOstar) and conducted as described3 with some modifications. The percentage inhibition of compounds against S. cerevisiae PDC was assayed at 750 μM. The reaction buffer (50 mM KH 2PO4 and 1 mM MgCl2, pH 7) contained TPP at specified concentrations, 0.27 mM DCPIP, and 0.15 mg/ml S. cerevisiae PDC. The reaction mixture was preincubated at 37 °C with the inhibitor for 60 min, then reaction was initiated by adding pyruvate to a final concentration of 70 mM. To determine the IC50, TPP concentration was set at 150 µM with varying inhibitor concentrations. Specific activity was […]
calculated from non-linear regression curve fitting using GraphPad Prism. […]

TPP-dependent enzymes = assay: Inhibition / relative affinity across the TPP-dependent enzymes (PDH E1, PDC, PO, OGDH E1); settings: comparison of relative affinities
Source text: The different biochemical reactions catalyzed, preferred substrates (Table S1), and primary sequences reflect the structurally and functionally diverse members of the family. […] However, as the inhibitors are TPP-competitive, what really matters is the affinity of each inhibitor relative to the affinity of TPP for that particular enzyme.

[1] = calculated from KM(TPP) 15 µM using [TPP]/IC50 = KM(TPP)/KI
[2] = read-out: IC50 (μM ± SEM), [TPP] = 150 µM

Compound	% Inhibition (5:1) (Porcine PDH E1) [%]	inhibition at 250 µM (Porcine PDH E1) [%]	vs TPP: affinity of the compound relative to that of TPP (= [TPP]/IC50) (Porcine PDH E1)	IC50 (Porcine PDH E1) [µM]	Ki (Porcine PDH E1) [nM]	IC50 (S. cerevisiae PDC) [µM]	Ki (S. cerevisiae PDC) [µM]	% Inhibition (5:1) (S. cerevisiae PDC) [%]	inhibition at 750 µM (S. cerevisiae PDC) [%]	vs TPP: affinity of the compound relative to that of TPP (= [TPP]/IC50) (S. cerevisiae PDC; [TPP] = 150 µM)	affinities, fold lower than those of 14b (TPP-dependent enzymes)	Ki (S. cerevisiae PDC; [1]) [µM]	IC50 (S. cerevisiae PDC; [2]) [µM]
COC(=O)C(CCc1cn(Cc2cnc(C)nc2N)nn1)C(=O)OC [13a]	71 ± 3	36 ± 2	0.53	114 ± 15	95	939 ± 167	94	40 ± 4	< 20	0.16	–	–	–
COC(=O)C(CCCc1cn(Cc2cnc(C)nc2N)nn1)C(=O)OC [13b]	81 ± 4	48 ± 3	0.88	68 ± 9	57	713 ± 139	71	52 ± 3	21 ± 5	0.21	approximately 3 fold	–	–
Cc1ncc(Cn2cc(CCC(C(=O)[O-])C(=O)[O-])nn2)c(N)n1.[K+].[K+] [14a]	> 90	62 ± 3	1.62	37 ± 6	31	–	–	70 ± 2	31 ± 3	0.47	–	32	319 ± 57
Cc1ncc(Cn2cc(CCCC(C(=O)[O-])C(=O)[O-])nn2)c(N)n1.[K+].[K+] [14b]	> 90	72 ± 3	2.4	25 ± 6	21	–	–	79 ± 3	42 ± 3	0.7 and 0.71	–	21	211 ± 39
COC(=O)CCCc1cn(Cc2cnc(C)nc2N)nn1 [15a]	65 ± 4	25 ± 4	0.36	167 ± 35	140	883 ± 144	88	42 ± 3	< 20	0.17	–	–	–
COC(=O)CCCCc1cn(Cc2cnc(C)nc2N)nn1 [15b]	71 ± 4	31 ± 3	0.48	126 ± 28	110	789 ± 167	79	47 ± 4	< 20	0.19	–	–	–
Cc1ncc(Cn2cc(CCCC(=O)[O-])nn2)c(N)n1.[K+] [16a]	75 ± 4	34 ± 3	0.54	111 ± 18	93	–	–	55 ± 4	24 ± 4	0.26	–	58	582 ± 88
Cc1ncc(Cn2cc(CCCCC(=O)[O-])nn2)c(N)n1.[K+] [16b]	77 ± 3	40 ± 3	0.65	92 ± 13	77	–	–	60 ± 4	25 ± 5	0.30	approximately 3 fold	50	503 ± 76
